Usually IC50 stands for the concentration at which inhibition is half-maximal. High values mean a need for much substance, low ones inhibition by little substance.

The source of these data is patent US5905090A, “Analogues of the active metabolite of leflunomide” (Italfarmaco S.p.A., priority 1998, dated 1999).

Experiment [1] has as its system murine splenocytes (BALB/c and DBA/2 mice). Nature of the experiment: Mixed lymphocyte reaction (MLR), bi-directional, [3H]-thymidine proliferation. The experiment is classed as cell-based, murine (BALB/c and DBA/2 mice). The following applies: Mus musculus, Splenocyte, 96 hours. The method, then: Mixed lymphocyte reaction (MLR).
Bi-directional MLR was carried out using murine cells. Splenocytes were prepared from BALB/c and DBA/2 mice (18-20 g) Charles River, Calco, Italy). Briefly, single cell suspensions were isolated from spleen by Ficoll-Hypaque (biochrom, Berlin, Germany) density gradient centrifugation. 5×10^4 splenocytes from each preparation was cultured for 96 hours in triplicate in 96-well round-bottom plates (Nunc, Roskilde, Denmark), in the absence or presence of serial dilutions of the tested compounds. All compounds were dissolved in dimethyl sulfoxide (DMSO) to a final 20 mM concentration and then diluted into the culture medium used for the cell assay. To take into account a possible interference from DMSO, each experiment included a control in which the DMSO concentration was made equal to those of compound-treated cultures. Culture medium used was RPMI 1640 (Biochrom, Berlin, Germany), supplemented with 5% foetal bovine serum (Hyclone Laboratories Inc., Logan, Utah), 50 μm 2-mercaptoethanol, 2 mM L-glutamine, 0.1 mM non-essential amino acids, 1 mM sodium pyruvate, 100 IU/ml penicillin, and 100 μg/ml streptomycin. During the last 18 hours of culture, cells were pulsed with 1 μCi of [^3 H]-thymidine (Amersham, UK) and then harvested onto glass fiber filters by means of a cell harvester. Radioacivity, proportional to proliferation, was measured with a β-counter.

Another experiment concerns CD2. Nature of the experiment: Inhibition of lymphocyte activation antigens expression: CD2 (OKT3-stimulated PBMC, flow cytometry). The experiment is classed as cell-based. The following applies: human PBMC, 24 hr. Here is the method: (§1) Inhibition of lymphocyte activation antigens expression.
(§2) Human peripheral blood mononuclear cells (PBMC) from healthy donors were separated by Ficoll-Hypaque density-gradient centrifugation. The cells recovered were suspended in culture medium (RPMI 1640 supplemented with 10% foetal bovine serum, 2 mM L-glutamine, 100 IU/ml penicillin and 100 μg/ml streptomycin).
(§3) PBMC, suspended at a density of 10^6 cells/ml in culture medium, were incubated in 24-well plates (Costar, Cambridge, Mass.) with the tested compounds and, 30 min later, stimulated with optimal concentration of the monoclonal antibodies OKT3 (Ortho Diagnostic Inc., Raritan, N.J.) for 24 hr at 37° C. and under 5% CO2. At the end of incubation, cells were washed twice with PBS containing 2% human serum (Irvine Scientific, Irvine, Calif.) and then incubated with fluorescein isothiocyanate (FITC)-conjugated monoclonal antibodies (Mab) for 30 min on ice. Cells were then washed as above and fluorescence analysis was performed by flow-cytometry on a FACScan (Becton-Dickinson, Mountain View, Calif.). The Mabs used were anti-Leu5b (CD2), anti-Interleukin-2 receptor (CD25) and anti transferrin receptor (CD71). Fluorescence background was determined by incubating the cells with FITC-conjugated mouse IgG of the relevant isotype. Forward- and right-angle scatter were set in order to include lymphocytes and lymphoblasts. The results, expressed as percentage of inhibition of mean fluorescence (MF), were calculated as follows: [formula]

Another experiment relates to CD25. Nature of the experiment: Inhibition of lymphocyte activation antigens expression: CD25 (OKT3-stimulated PBMC, flow cytometry). The format is cell-based. The settings on record: human PBMC, 24 hr. The method, then: as §1, §2, §3
For the next experiment, the system named is CD71. Nature of the experiment: Inhibition of lymphocyte activation antigens expression: CD71 (OKT3-stimulated PBMC, flow cytometry). The following applies: human PBMC, 24 hr. The format is cell-based. Here is the method:
as §1, §2, §3
On the technique in general: In flow cytometry, cells or beads pass a laser one at a time.

Experiment [2] deals with adjuvant arthritis (complete Freund's adjuvant). Nature of the experiment: Adjuvant arthritis in the rat. The experiment is classed as in vivo, rat (male Lewis). The settings on record: p.o. daily.
Experiment [3] relates to antigen-induced paw edema (KLH-immunised BALB/c mice). Nature of the experiment: Antigen-induced paw edema in the mouse. The experiment is classed as in vivo, mouse (female BALB/c). The following applies: daily day 0 to day 13, 8 hours after challenge. The method, then: Antigen-induced paw edema in the mouse.
Groups of 4-8 female BALB/c mice (20-22 g; Charles River, Calco, Italy) were immunised at days 0 and 7 with two s.c. injections, of keyhole limpet hemocyanin (KLH, 100 μg/mouse; Sigma Chemicals, S. Louis, Mo.) emulsified in 0.2 ml complete Freund's adjuvant (CFA, Sigma Chemicals, S. Louis, Mo.). Non-immunised mice (Control) were treated with CFA alone. On day 14, immunised mice were challenged in the hind footpad with 20 μg KLH suspended in physiological solution. Eight hours after antigen challenge the edema was quantified measuring the dorsal-ventral thickness of the footpad with a scientific micrometer (Borletti, Italy). To evaluate their immunosuppressive activity, the compounds were administered daily from day 0 to day 13.

In the case of `CC(O)=C(C(=O)Nc1ccc(C(F)(F)F)cc1)C(=O)Nc1ccc(C(F)(F)F)cc1` [Example 1, N-(4-trifluoromethylphenyl)-2-(4-trifluoromethylphenylcarbamoyl)-3-hydroxybut-2-enamide], the IC50 in experiment [1] came out at 11.9 ± 0.1 µM; with CD2 it was 15.3 µM; in the experiment with CD25, 18.4 µM; in the experiment on CD71, 18.8 µM.

As for `O=C(Nc1ccc(C(F)(F)F)cc1)C1=C(O)COC1=O` [Example 2, N-(4-trifluoromethylphenyl)-4-hydroxy-2-oxo-(5H)-furan-3-carboxamide], the 50% inhibitory concentration (IC50) in experiment [1] was 3.4 ± 1.1 µM; in the experiment with CD2 it was 13.8 µM; in the experiment on CD25 it was 14.8 µM; in the experiment on CD71, 66.5 µM.

Take `O=C1CCC(O)=C1C(=O)Nc1ccc(C(F)(F)F)cc1` [Example 3]: the IC50 was found to be 1.25 ± 0.2 µM in experiment [1], 2.9 µM in the experiment with CD2, 2.9 µM in the experiment on CD25 and 11 µM in the experiment on CD71. The “Inhibition (%) of arthritis score” value stood at 42% in experiment [2] (Day 14), 46% in experiment [2] (Day 17) and 19% in experiment [2] (Day 21). For the same compound, the Arthritis score was determined as 2.1 ± 0.1 in experiment [2] (Day 14, vehicle score 3.6 ± 0.5); 2.6 ± 0.1 in experiment [2] (Day 17, vehicle score 4.8 ± 0.4); 3.9 ± 0.2 in experiment [2] (Day 21, vehicle score 4.8 ± 0.6).

For `O=C1CCCC(O)=C1C(=O)Nc1ccc(C(F)(F)F)cc1` [Example 4], the IC50 in experiment [1] was 45.9 ± 29.5 µM; in the experiment with CD2, 95.4 µM; in the experiment on CD25, > 100 µM; in the experiment on CD71 it was > 100 µM.

Turning to `O=C(Nc1ccc(C(F)(F)F)cc1)c1ccccc1O` [Example 5, N-(4-trifluoromethylphenyl)-2-hydroxy-benzamide], the IC50 in experiment [1] is 1.65 ± 0.1 µM; with CD2, 3 µM; with CD25, 2.4 µM; in the experiment with CD71, 4.4 µM. Besides, the “Percentage of inhibition of edema formation” value in experiment [3] (10 mg/Kg i.p.) came to 37%.

Regarding `Cc1oncc1C(=O)Nc1ccc(C(F)(F)F)cc1` [Leflunomide, 5-methyl-N-(4-trifluoromethylphenyl)isossazole-4-carboxamide], the IC50 in experiment [1] is 9.6 ± 3.1 µM; in the experiment on CD2 it was 126 µM; in the experiment with CD25, 130 µM; with CD71, > 100 µM. The “Percentage of inhibition of edema formation” value in experiment [3] (10 mg/Kg p.o.) stood at 43%.
